Experimental data: patent US9827187B2, “Filaggrin gene expression promoter” (Shiseido Company, Ltd., priority 2012, dated 2017)

Experiments:
[1] = system: filaggrin gene; test: Filaggrin gene expression promotion by 1PP, zanthoxylum extract and their combination (QPCR, cultured keratinocytes); assay type: cell-based, human; conditions: agent at 0.1% in medium (combination: 0.1% each); keratinocytes collected after 18 hours; versus no-agent control; FIG. 4
Procedure: Commercially available normal adult skin-derived keratinocytes (Cellntec AG) were disseminated in a culture plate to a concentration of 3×10^3 cells/cm^2 followed by culturing in epithelial cell medium (CnT-BM.1, Cellntec AG) at 37° in a 5% CO2 atmosphere. […] The absence of addition of pharmaceutical agent was used as a control.
RNA was extracted from the collected cells using a commercially available RNA extraction-cDNA synthesis kit (FastLane Cell cDNA Kit, Qiagen N.V.) to prepare cDNA. Filaggrin expression levels were measured by quantitative PCR (QPCR) using this cDNA. A commercially available QPCR reagent kit (Brilliant III Ultra-Fast SYBR Green QPCR Kit, Agilent Technologies Inc.) and QPCR measurement system (MX-3000P Real-time Quantitative PCR System, Agilent Technologies Inc.) were used for QPCR. The expression level of a housekeeping gene in the form of RPLP0 gene was quantified for use as an internal standard, and the relative expression level with respect to PLP0 was calculated and used as the expression level of filaggrin gene. The primer sequences shown in Table 1 were used for the sequences of the PCR primers.

[2] = system: filaggrin gene; test: Screening pharmaceutical agents that promote filaggrin gene expression (QPCR, cultured keratinocytes); assay type: cell-based, human; conditions: candidate agent at 1% in medium; normal adult skin-derived keratinocytes; 18 hours after addition; relative to RPLP0; FIG. 3
Procedure: Commercially available normal adult skin-derived keratinocytes (Cellntec AG) were disseminated in a culture plate to a concentration of 3×10^3 cells/cm^2 followed by culturing in epithelial cell medium (CnT-BM.1, Cellntec AG) at 37° in a 5% CO2 atmosphere. Three days later, the medium was replaced with medium containing each of the candidate pharmaceutical agents at a concentration of 1% followed by continuing culturing at 37° C. and 5% CO2 and collecting the cells after 2 hours and after 18 hours. The candidate pharmaceutical agents added to the medium consisted of zanthoxylum extract (Maruzen Pharmaceuticals Co., Ltd.), geranium oil (Koei Kogyo Co., Ltd.), cypress oil (Bioland Co., Ltd.), rose oil (Bioland Co., Ltd.), galvanum oil (Bioland Co., Ltd.), pepper oil (Bioland Co., Ltd.), basil oil (Bioland Co., Ltd.), methyl-o-toluate (Aldrich Inc.), methyl anthranilate (Tokyo Chemical Industry Co., Ltd.), dimethyl anthranilate (Tokyo Chemical Industry Co., Ltd.), clove bud caryophyllata oil (Bioland Co., Ltd.) and arnica oil (Koei Kogyo Co., Ltd.). The absence of addition of pharmaceutical agent was used as a negative control, and cortisol (concentration in medium: 50 ng/mL) was used as a positive control.
RNA was extracted from the collected cells using a commercially available RNA extraction-cDNA synthesis kit (FastLane Cell cDNA Kit, Qiagen N.V.) to prepare cDNA. Filaggrin expression levels were measured by quantitative PCR (QPCR) using this cDNA. Expression levels of clock genes PER3 and BMAL1 were measured simultaneously and compared with the expression rhythm of filaggrin gene. A commercially available QPCR reagent kit (Brilliant III Ultra-Fast SYBR Green QPCR Kit, Agilent Technologies Inc.) and QPCR measurement system (MX-3000P Real-time Quantitative PCR System, Agilent Technologies Inc.) were used for QPCR. The expression level of a housekeeping gene in the form of RPLP0 gene was quantified for use as an internal standard, and the relative expression level with respect to PLP0 was calculated and used as the expression level of filaggrin gene. […]

Structure (SMILES) | effect of promoting filaggrin gene expression [1] | expression of filaggrin gene after 18 hours in comparison with the negative control [2]
O=C(O)CCN1CCCCC1 [1PP, 3-(1′-piperidine)propionic acid] | effect of promoting filaggrin gene expression that was comparable to that of zanthoxylum extract | –
CNc1ccccc1C(=O)OC [dimethyl anthranilate, 2-methyl aminomethylbenzoate] | – | promote expression of filaggrin gene
COC(=O)c1ccccc1N [methyl anthranilate, methyl 2-aminobenzoate] | – | promote expression of filaggrin gene
COC(=O)c1ccccc1C [methyl-o-toluate, methyl 2-methylbenzoate] | – | promote expression of filaggrin gene
